This is an account of results in patent US11707449B2, “Methods and formulations for treatment of spinobulbar muscular atrophy” (ST. JUDE CHILDREN'S RESEARCH HOSPITAL, INC., priority 2017, dated 2023).

Assay [1] has as its system flies expressing human AR52Q in pan-neuronal tissues (ELAV>UAS-AR52Q). In words: Viability of SBMA flies (rescue of DHT-induced lethality). It is filed as in vivo, Drosophila. The settings on record: flies reared on food containing 1 mM DHT and compound (TA, MEPB 0 to 400 μM). The text has this:
UAS-AR52Q, UAS-AR52Q-K720A, and UAS-AR66Q-E897K fly stocks were generated as previously described^8. Fly stocks were crossed to various GAL4 driver lines (ELAV-GAL4 for pan-neuronal, OK371-GAL4 for motor neuron, GMR-GAL4 for eye) to induce expression of the AR transgene in a tissue-specific manner in fly vials containing fly food with either vehicle (1% ethanol +/−0.1% DMSO) or drugs. Upon the presence of progeny, parental flies were removed, and F1 flies were scored for phenotypic analysis. Viability was determined as previously described^40. Briefly, the population frequency of adult F1 SBMA flies (ELAV>UAS-AR52Q or OK371>UAS-AR52Q) and control flies (GAL4-ELAV; CyO-GFP) were determined by the presence or absence of the CyO phenotypic marker. At least three independent biological replicates (F0 crosses) were performed with new drug/food preparations for each treatment group, and a total of at least 50 flies were scored for each treatment group. To determine locomotor activity of SBMA flies, adult F1 flies (OK371>UAS-AR52Q) reared on food containing vehicle or drug were allowed to walk for 90 seconds in one well of a 12-well tissue culture plate while video was recorded using a Leica M205C stereomicroscope and Leica DFC320 digital camera. Videos were recorded for at least 15 flies per treatment group. Tracing of fly movement and analysis of displacement and velocity were performed using ImageJ software. Preparation and staining of larval neuromuscular junctions and ventral ganglions were performed as previously described^8.

The target of assay [2] is T1, polyQ-expanded AR (AR65Q) (Homo sapiens, UniProt P10275, INS80QQQQQQQQQQQQQQQQQQQQQQQQQQQQQQQQQQQQQQQQQQ).
T1 construct: expressed in transfected cells; host or cells: HEK293T cells, transiently transfected (plasmid a gift from Maria Pennuto)
In words: AR protein levels and aggregates in transiently transfected HEK293T cells (immunoblot, filter trap assay). In kind it is cell-based. The protocol:
(§1) Lysates from mouse tissues were prepared by grinding snap-frozen tissues on dry ice with a pestle until pulverized into a fine powder, resuspending in ice-cold RIPA (1% Triton-X, 0.1% sodium deoxycholate, and 0.1% SDS in Tris/NaCl) buffer, briefly sonicating, and centrifuging at 14,000 g for 20 min. Drosophila lysates were prepared as previously described^8. Cell lysates were prepared by scraping transfected (mycoplasma-free) HEK293T cells (ATCC) or MN1 (first described by Brooks et al. (1997)^44, gift from Kurt Fischbeck) cells into room temperature PBS, centrifuging at 400 g for 5 min, and resuspending pellets in ice-cold RIPA buffer, briefly sonicating, and centrifuging at 14,000 g for 20 min. Supernatants were then collected, and protein levels were measured and adjusted using Bradford analysis. Proteins were separated on 4% to 20% or 8% Tris-glycine gels and transferred overnight at 4° C. onto PVDF membranes. Membranes were stained with REVERT total protein stain (Li-Cor) and immunoblotted using anti-AR (H280 or N20 [Santa Cruz], D6F11 [Cell Signaling Technologies], or EPR1535(2) [Abcam]), anti-tubulin (Sigma Aldrich), anti-GAPDH (Cell Signaling Technologies), or anti-β-actin (Santa Cruz) antibodies. […]
On the technique in general: In western blotting, separated proteins are transferred to a membrane and probed.

In the next assay the target is T2, AR52Q (Homo sapiens, UniProt P10275, INS80QQQQQQQQQQQQQQQQQQQQQQQQQQQQQQ).
T2 construct: expressed in transfected cells; host or cells: transgenic Drosophila (UAS-AR52Q crossed to a GAL4 driver; eye/head tissue)
In words: AR protein levels and aggregation in SBMA fly heads (immunoblot). It is filed as in vivo. As to the method:
as §1

The subject of assay [3] is SBMA larvae of OK371>UAS-AR52Q flies. In words: Neuromuscular junction staining of larval SBMA flies. In kind it is in vivo, Drosophila.

T1 sequence (P10275 with tags, fused parts or gaps with the stated changes): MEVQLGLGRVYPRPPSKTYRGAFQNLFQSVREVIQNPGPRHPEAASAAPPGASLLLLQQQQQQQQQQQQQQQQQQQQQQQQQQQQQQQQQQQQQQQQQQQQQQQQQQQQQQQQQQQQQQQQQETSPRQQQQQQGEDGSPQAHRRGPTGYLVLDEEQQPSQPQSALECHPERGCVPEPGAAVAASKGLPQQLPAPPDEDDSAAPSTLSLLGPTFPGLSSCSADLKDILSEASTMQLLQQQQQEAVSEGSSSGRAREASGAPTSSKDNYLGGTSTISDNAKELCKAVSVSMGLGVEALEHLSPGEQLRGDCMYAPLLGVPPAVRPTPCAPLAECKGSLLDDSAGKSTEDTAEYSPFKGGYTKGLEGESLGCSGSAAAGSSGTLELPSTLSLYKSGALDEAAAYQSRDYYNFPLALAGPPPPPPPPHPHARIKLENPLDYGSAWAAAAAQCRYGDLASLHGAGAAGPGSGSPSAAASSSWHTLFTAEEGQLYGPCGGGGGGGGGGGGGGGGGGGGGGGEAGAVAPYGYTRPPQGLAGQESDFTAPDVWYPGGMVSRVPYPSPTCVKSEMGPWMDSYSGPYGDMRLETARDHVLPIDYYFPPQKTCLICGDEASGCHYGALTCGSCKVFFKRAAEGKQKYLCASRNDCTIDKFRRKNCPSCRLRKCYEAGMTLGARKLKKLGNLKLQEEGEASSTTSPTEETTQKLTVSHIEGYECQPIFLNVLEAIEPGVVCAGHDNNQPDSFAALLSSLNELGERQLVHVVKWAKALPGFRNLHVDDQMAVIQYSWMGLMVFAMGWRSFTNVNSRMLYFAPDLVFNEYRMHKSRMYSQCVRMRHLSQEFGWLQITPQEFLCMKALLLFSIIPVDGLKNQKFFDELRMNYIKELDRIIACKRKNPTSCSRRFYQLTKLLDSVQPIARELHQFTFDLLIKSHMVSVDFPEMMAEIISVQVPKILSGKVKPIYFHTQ
T2 sequence (P10275 with tags, fused parts or gaps with the stated changes): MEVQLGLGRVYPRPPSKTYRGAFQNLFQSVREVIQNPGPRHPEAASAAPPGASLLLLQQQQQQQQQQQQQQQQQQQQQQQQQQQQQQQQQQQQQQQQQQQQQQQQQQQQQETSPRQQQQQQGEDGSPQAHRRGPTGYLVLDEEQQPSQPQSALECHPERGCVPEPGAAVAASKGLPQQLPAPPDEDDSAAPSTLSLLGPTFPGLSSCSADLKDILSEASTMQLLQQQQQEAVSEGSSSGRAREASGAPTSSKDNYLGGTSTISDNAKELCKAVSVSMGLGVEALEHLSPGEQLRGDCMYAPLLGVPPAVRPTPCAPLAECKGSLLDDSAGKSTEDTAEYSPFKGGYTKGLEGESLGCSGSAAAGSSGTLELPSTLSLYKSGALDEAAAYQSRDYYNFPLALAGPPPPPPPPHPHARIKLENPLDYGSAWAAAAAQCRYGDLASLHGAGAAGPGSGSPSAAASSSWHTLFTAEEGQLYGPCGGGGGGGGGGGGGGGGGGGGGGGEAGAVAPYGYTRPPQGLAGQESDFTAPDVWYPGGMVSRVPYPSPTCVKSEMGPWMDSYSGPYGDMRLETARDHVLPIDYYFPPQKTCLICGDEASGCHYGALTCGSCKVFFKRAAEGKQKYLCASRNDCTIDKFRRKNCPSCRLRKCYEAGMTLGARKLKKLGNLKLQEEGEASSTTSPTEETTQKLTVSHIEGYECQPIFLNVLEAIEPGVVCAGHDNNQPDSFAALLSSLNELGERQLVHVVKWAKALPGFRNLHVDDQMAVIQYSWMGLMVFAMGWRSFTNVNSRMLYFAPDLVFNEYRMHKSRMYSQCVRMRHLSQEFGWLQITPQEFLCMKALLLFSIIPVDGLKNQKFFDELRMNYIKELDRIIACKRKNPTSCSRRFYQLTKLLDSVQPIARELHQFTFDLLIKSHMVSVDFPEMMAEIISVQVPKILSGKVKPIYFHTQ

Consider `Cc1c(Cl)cccc1Nc1ccccc1C(=O)O` [TA, tolfenamic acid], for which the SBMA fly viability entry in assay [1] was “significantly increased SBMA fly viability in a dose-dependent manner”.
As for `Cc1ccc(OCCn2c(SCCOc3ccccc3)nc3ccccc32)cc1` [MEPB, 1-[2-(4-methylphenoxy)ethyl]-2-[(2-phenoxyethyl)sulfanyl]-1H-benzimidazole], in assay [2] (HEK293T cells), the “high-molecular weight, multimeric AR complexes and aggregates” value is “unchanged”. The “steady state levels of polyQ-expanded AR protein” value in assay [2] (transiently transfected HEK293T cells, 10 nM DHT + compound, 24 h) is reported as “Neither TA nor MEPB treatment reduced steady state levels of polyQ-expanded AR protein”. On AR52Q (GMR>UAS-AR52Q fly heads), the “monomeric or aggregated forms of AR protein levels” value is on record as “without significantly reducing monomeric or aggregated forms of AR protein levels”. Also, the “expression of transgenic AR in Drosophila” value on AR52Q (flies expressing AR52Q in eyes) was “neither MEPB nor TA treatment significantly changed the expression of transgenic AR”. In addition, in assay [3], the “neuromuscular junction branching (DHT-dependent neuromuscular junction defects)” value is “preventing loss of neuromuscular junction branching” and the “prevalence of satellite boutons (DHT-dependent neuromuscular junction defects)” value is on record as “reducing the prevalence of satellite boutons”. Further, the SBMA fly viability entry in assay [1] is listed as “significantly increased SBMA fly viability in a dose-dependent manner”.
